Results from patent US11414424B2, “Cardiac sarcomere inhibitors” (Cytokinetics, Inc., priority 2018, dated 2022).

Tested on: bovine cardiac myofibrils
Test: Myofibril assay: PK/LDH-coupled steady-state ATPase activity of skinned bovine cardiac myofibrils
Format: biochemical
Details: Ca2+ activating to 75% of maximal rate
Outline: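 Steady-state ATPase of detergent-skinned bovine left-ventricular myofibrils (1 mg/mL), PK/LDH-coupled NADH read at 340 nm, in PIPES/MgCl2 buffer pH 6.8 with 50 μM ATP, 0.6 mM EGTA and CaCl2 set for 50% or 75% activation. Inhibition of activity measured.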

Compound	CDMF75 IC15 [µM]	CDMF75 IC15 (listed as 838A) [µM]
O=C1C(C2COC2)N(Cc2ccc(C(F)(F)F)cc2)C(=O)CN1c1ccc(Cl)c(F)c1 (centres unmarked) [Compound 747, 1-(4-chloro-3-fluorophenyl)-3-(oxetan-3-yl)-4-(4-(trifluoromethyl)benzyl)-piperazine-2,5-dione]	3.7	–
CC(C)N1CC(=O)N(Cc2ccc(Cl)cc2)C2(CN(c3ccnc(C(=O)O)c3)C2)C1=O [Compound 36, 4-(5-(4-chlorobenzyl)-8-isopropyl-6,9-dioxo-2,5,8-triazaspiro[3.5]nonan-2-yl)picolinic acid]	24.5	–
CC(=O)N1CC2(C1)C(=O)N(c1ncc(C#N)cc1C)CC(=O)N2Cc1ccc(C(F)(F)F)cc1 [Compound 529, 6-(2-acetyl-6,9-dioxo-5-(4-(trifluoromethyl)benzyl)-2,5,8-triazaspiro[3.5]nonan-8-yl)-5-methylnicotinonitrile]	5.5	–
N#Cc1ccc(N2CC(=O)N(Cc3ccc(C(F)(F)F)cc3)[C@]3(C[C@H](CO)C3)C2=O)c(F)c1 [Compound 475B]	0.6	–
O=C1C(C23CC(CO)(C2)C3)N(Cc2ccc(C(F)(F)F)cc2)C(=O)CN1c1ncc(Cl)cc1F (centres unmarked) [Compound 784, 1-(5-chloro-3-fluoropyridin-2-yl)-3-(3-(hydroxymethyl)bicyclo[1.1.1]pentan-1-yl)-4-(4-(trifluoromethyl)benzyl)piperazine-2,5-dione]	6.8	–
CC(C)N1CC(=O)N(Cc2ccc(Cl)cc2)C2(CCN(c3cc[nH]c(=O)c3)C2)C1=O (centres unmarked) [Compound 81, 6-(4-chlorobenzyl)-9-isopropyl-2-(2-oxo-1,2-dihydropyridin-4-yl)-2,6,9-triazaspiro[4.5]decane-7,10-dione]	1.4	–
CC(C)N1CC(=O)N(Cc2cccc(F)c2)C(c2ccc(Cl)cc2)C1=O (centres unmarked) [Compound 299, 3-(4-chlorophenyl)-4-(3-fluorobenzyl)-1-isopropylpiperazine-2,5-dione]	7.0	–
CNC(=O)N1CC2(C1)C(=O)N(c1ccc3oc(=O)ccc3c1)CC(=O)N2Cc1ccc(C2(C(F)(F)F)N=N2)cc1 [Compound 181, N-methyl-6,9-dioxo-8-(2-oxo-2H-chromen-6-yl)-5-(4-(3-(trifluoromethyl)-3H-diazirin-3-yl)benzyl)-2,5,8-triazaspiro[3.5]-nonane-2-carboxamide]	6.2	–
COC(=O)N1CC[C@]2(C1)C(=O)N(c1ccc(C#N)cc1F)CC(=O)N2Cc1ccc(Cl)cc1 [Compound 211, methyl (S)-6-(4-chlorobenzyl)-9-(4-cyano-2-fluorophenyl)-7,10-dioxo-2,6,9-triazaspiro-[4.5]decane-2-carboxylate]	0.4	–
CC(C)N1CC(=O)N(Cc2ccc(C(F)(F)F)cc2)C2(CCN(C(=O)Nc3cnn(C)c3)C2)C1=O (centres unmarked) [Compound 114, 9-isopropyl-N-(1-methyl-1H-pyrazol-4-yl)-7,10-dioxo-6-(4-(trifluoromethyl)benzyl)-2,6,9-triazaspiro[4.5]decane-2-carboxamide]	7.9	–
Cc1cnc(C2CC3(C2)C(=O)N(c2ccc(C#N)cc2F)CC(=O)N3Cc2ccc(C(F)(F)F)cc2)o1 (centres unmarked) [Compound 436B]	0.3	–
CC(C)N1CC(=O)N(Cc2ccc(Cl)cc2)C2(CC(c3ccccc3)C2)C1=O (centres unmarked) [Compound 318, 5-(4-chlorobenzyl)-8-isopropyl-2-phenyl-5,8-diazaspiro[3.5]nonane-6,9-dione]	7.3	–
O=C1CN(c2ncc(Cl)cc2F)C(=O)C2(CC3(COC3)C2)N1Cc1ccc(F)cc1 [Compound 815, 10-(5-chloro-3-fluoro-pyridin-2-yl)-7-(4-Fluorobenzyl)-2-oxa-7,10-diazadispiro-[3.1.56.14]dodecane-8,11-dione]	0.7	–
CC1(C)C(=O)N(c2ccc(Cl)cc2F)CC(=O)N1Cc1ccc(C(F)(F)F)cc1 [Compound 273, 1-(4-chloro-2-fluorophenyl)-3,3-dimethyl-4-(4-(trifluoromethyl)benzyl)-piperazine-2,5-dione]	1.8	–
CC(C)N1CC(=O)N([C@@H](C)c2ccc(C(F)(F)F)cc2)C2(CN(c3ccccc3)C2)C1=N [Compound 328, (S)-9-imino-8-isopropyl-2-phenyl-5-(1-(4-(trifluoromethyl)phenyl)ethyl)-2,5,8-triazaspiro[3.5]nonan-6-one]	19.3	–
O=C1CN(c2ccc(Cl)cc2F)C(=O)[C@]2(C[C@@H](O)C2)N1Cc1ccc(C(F)(F)F)cc1 (single isomer, unassigned) [Compound 483B]	0.7	–
CC(C)N1CC(=O)N(Cc2ccc(Cl)cc2)C2(CCN(c3cnccn3)C2)C1=O (centres unmarked) [Compound 74, 6-(4-chlorobenzyl)-9-isopropyl-2-(pyrazin-2-yl)-2,6,9-triazaspiro[4.5]-decane-7,10-dione]	4.2	–
C[C@@H](c1ccc(Cl)cc1)N1C(=O)CN(c2ncc(Cl)cc2F)C(=O)C12CN(CC(F)F)C2 [Compound 566, (S)-8-(5-chloro-3-fluoro-pyridin-2-yl)-5-(1-(4-chlorophenyl)ethyl)-2-(2,2-difluoroethyl)-2,5,8-triazaspiro[3.5]nonane-6,9-dione]	4.0	–

The remaining lines, values ahead:

CDMF75 IC15 [µM]	CDMF75 IC15 (listed as 838A) [µM]	Compound
7.8	–	CC(C)N1CC(=O)N(Cc2ccc(Cl)cc2)C2(CN(c3ccc(C(N)=O)nn3)C2)C1=O [Compound 54, 6-(5-(4-chlorobenzyl)-8-isopropyl-6,9-dioxo-2,5,8-triazaspiro[3.5]-nonan-2-yl)pyridazine-3-carboxamide]
8.6	–	CCNC(=O)N1CC2(C1)C(=O)N(c1ncc(Cl)cc1F)CC(=O)N2[C@@H](C)c1ccc(Cl)cc1 [Compound 560, (S)-8-(5-chloro-3-fluoro-pyridin-2-yl)-5-(1-(4-chlorophenyl)ethyl)-N-ethyl-6,9-dioxo-2,5,8-triazaspiro[3.5]nonane-2-carboxamide]
–	2.3	O=C1C(C23CC(O)(C2)C3)N(Cc2ccc(C(F)(F)F)cc2)C(=O)CN1c1ncc(Cl)cc1F (single isomer, unassigned) [Enantiomer 838A, 1-(5-chloro-3-fluoropyridin-2-yl)-3-(3-hydroxybicyclo[1.1.1]pentan-1-yl)-4-(4-(trifluoromethyl)benzyl)piperazine-2,5-dione]
1.2	–	CC1(CO)C(=O)N(c2ccc(C#N)cc2F)CC(=O)N1Cc1ccc(C(F)(F)F)cc1 (centres unmarked) [Compound 269, 3-fluoro-4-(3-(hydroxy-methyl)-3-methyl-2,5-dioxo-4-(4-(trifluoro-methyl)benzyl)piperazin-1-yl)benzonitrile]
27.6	–	Cc1cnc(N2CC(=O)N(Cc3ccc(C(F)(F)F)cc3)C(C3COC3)C2=O)c(F)c1 (racemic) [Compound 691, 1-(3-fluoro-5-methylpyridin-2-yl)-3-(oxetan-3-yl)-4-(4-(trifluoromethyl)benzyl)piperazine-2,5-dione]
3.8	–	N#Cc1ccc(N2CC(=O)N(Cc3ccc(C(F)(F)F)cc3)C(C3COC3)C2=O)c(F)c1 (centres unmarked) [Compound 282, 3-fluoro-4-(3-(oxetan-3-yl)-2,5-dioxo-4-(4-(trifluoromethyl)benzyl)-piperazin-1-yl)benzonitrile]
1.6	–	CNC(=O)N1CC2(C1)C(=O)N(c1ccc(C#N)cc1)CC(=O)N2Cc1ccc(Cl)cc1 [Compound 164, 5-(4-chlorobenzyl)-8-(4-cyanophenyl)-N-methyl-6,9-dioxo-2,5,8-triazaspiro-[3.5]nonane-2-carboxamide]
7.4	–	CC(=O)N1CCC2(CC1)C(=O)N(c1ncc(Cl)cc1F)CC(=O)N2Cc1ccc(C(F)(F)F)cc1 [Compound 572, 9-acetyl-4-(5-chloro-3-fluoropyridin-2-yl)-1-(4-(trifluoromethyl)benzyl)-1,4,9-triazaspiro[5.5]-undecane-2,5-dione]
0.2	–	COC(=O)[C@H]1C[C@]2(C1)C(=O)N(c1ccc(C#N)cc1F)CC(=O)N2Cc1ccc(Cl)cc1 (single isomer, unassigned) [Compound 488B]
>39	–	CC(C)N1CC(=O)N(Cc2ccc(Cl)cc2)C2(CCN(C(=O)Nc3ccccn3)C2)C1=O (centres unmarked) [Compound 385, 6-(4-chlorobenzyl)-9-isopropyl-7,10-dioxo-N-(pyridin-2-yl)-2,6,9-triazaspiro[4.5]decane-2-carboxamide]
5.2	–	Cc1cc(N2CC3(C2)C(=O)N(C(C)C)CC(=O)N3Cc2ccc(Cl)cc2)ccn1 [Compound 10, 5-(4-chlorobenzyl)-8-isopropyl-2-(2-methyl-pyridin-4-yl)-2,5,8-triazaspiro[3.5]nonane-6,9-dione]
8.0	–	CNC(=O)N1CCC2(C1)C(=O)N(Cc1ccc(OC)cc1)CC(=O)N2Cc1ccc(Cl)cc1 (centres unmarked) [Compound 334, 6-(4-chlorobenzyl)-9-(4-methoxybenzyl)-N-methyl-7,10-dioxo-2,6,9-triazaspiro[4.5]decane-2-carboxamide]
6.0	–	CNC(=O)N1CC2(C1)C(=O)N(C(C)C)CC(=O)N2Cc1ccc(C(F)(F)F)cc1 [Compound 67, 8-isopropyl-N-methyl-6,9-dioxo-5-(4-(trifluoromethyl)benzyl)-2,5,8-triazaspiro[3.5]-nonane-2-carboxamide]
0.7	–	CC(=O)N1CC2(C1)C(=O)N(c1ccc(Cl)cc1F)CC(=O)N2[C@@H](C)c1ccc(C(F)(F)F)cc1 [Compound 340, (S)-2-acetyl-8-(4-chloro-2-fluorophenyl)-5-(1-(4-(trifluoromethyl)phenyl)-ethyl)-2,5,8-triazaspiro-[3.5]nonane-6,9-dione]
